Experimental findings from publication PMC11915375 (ACS Infectious Diseases, 2025) are described below.

Assay [1] deals with Leishmania major amastigotes. Nature of the assay: Leishmania major amastigote assay. In kind it is cell-based. Conditions: read-out: L. maj EC50.
The subject of assay [2] is L. donovani. The experiment in a line: L. donovani in vitro assay. In kind it is cell-based, Leishmania donovani.
Assay [3] concerns T. brucei. The experiment in a line: T. brucei proliferation inhibition assay. Conditions: read-out: T. brucei EC50 ± S.D. In kind it is cell-based, Trypanosoma brucei.
Assay [4] deals with T. cruzi CA-I/72. Nature of the assay: T. cruzi in vitro assay, C2C12 host cell. In kind it is cell-based, Trypanosoma cruzi.
[5] abbreviates: Leishmania donovani, read-out: L. don EC50, B10R host cell line.
Setting [6] is: Trypanosoma cruzi, C2C12, read-out: T. cruzi EC50.

What is called EC50 is the concentration needed to bring the measured effect to its halfway point.

Read-outs that look alike come from different tables or passages of the source.

For the molecule `COc1cnc(Nc2cnnc3ccc(-c4ccc(N5CCN(C)CC5)cc4)cc23)nc1` [Compound 25a, N-(5-Methoxypyrimidin-2-yl)-6-(4-(4-methylpiperazin-1-yl)phenyl)cinnolin-4-amine], the concentration for a half-maximal effect (EC50) in assay [1] (Leishmania major) is > 4.7 µM; in assay [2] (setting [5]), 9.4 µM; in assay [3] (Trypanosoma brucei), 1.2 ± 0.38 µM; in assay [4] (setting [6]), 6.1 µM.
Consider `C[C@@H]1[C@H](O)[C@@H](C)/C=C/C=C/C=C/C=C/C=C/C=C/C=C/[C@H](O[C@@H]2O[C@H](C)[C@@H](O)[C@H](N)[C@@H]2O)C[C@@H]2O[C@](O)(C[C@@H](O)C[C@@H](O)[C@H](O)CC[C@@H](O)C[C@@H](O)CC(=O)O[C@H]1C)C[C@H](O)[C@H]2C(=O)O` [Amphotericin B, reference compound], for which the EC50 in assay [2] (setting [5]) was 0.07 µM.
For `O=C(Cn1ccnc1[N+](=O)[O-])NCc1ccccc1` [Benznidazole, reference compound], the EC50 in assay [4] (setting [6]) came out at 3.77 µM.
Consider `COc1cnc(Nc2cnnc3ccc(-c4cnc(N5CCCN(C)CC5)nc4)cc23)nc1` [Compound 32a, N-(5-Methoxypyrimidin-2-yl)-6-(2-(4-methyl-1,4-diazepan-1-yl)pyrimidin-5-yl)cinnolin-4-amine], for which the EC50 in assay [1] (Leishmania major) is > 23 µM; in assay [2] (setting [5]) it was 8 µM; in assay [3] (Trypanosoma brucei) it was 2.9 ± 0.8 µM; in assay [4] (setting [6]), > 10 µM.
Turning to `COc1ccc(Nc2cnnc3cc(-c4cnc(N5CCCN(C)CC5)nc4)ccc23)cc1` [Compound 30b, N-(4-Methoxyphenyl)-7-(2-(4-methyl-1,4-diazepan-1-yl)pyrimidin-5-yl)cinnolin-4-amine], the EC50 was > 23 µM in assay [1] (Leishmania major), 0.24 ± 0.088 µM in assay [3] (Trypanosoma brucei) and 0.29 µM in assay [4] (setting [6]).
As for `CN1CCN(c2ccc(-c3ccc4c(Nc5ncc(Cl)cn5)cnnc4c3)cc2)CC1` [Compound 22b, N-(5-Chloropyrimidin-2-yl)-7-(4-(4-methylpiperazin-1-yl)phenyl)cinnolin-4-amine], the EC50 in assay [1] (Leishmania major) was 4.2 µM; in assay [2] (setting [5]) it was > 10 µM; in assay [3] (Trypanosoma brucei), 0.72 ± 0.47 µM; in assay [4] (setting [6]), 2.3 µM.
The like results for `CN1CCN(c2ncc(-c3ccc4nncc(Nc5ccc(OC(F)(F)F)cc5)c4c3)cn2)CC1` [Compound 28a, 6-(2-(4-Methylpiperazin-1-yl)pyrimidin-5-yl)-N-(4-(trifluoromethoxy)phenyl)cinnolin-4-amine] were, in that order, > 21 µM, 1.5 µM, 1 ± 0.12 µM and 4.2 µM.
For `COc1cnc(Nc2cnnc3ccc(-c4ccc(S(=O)(=O)N5CCN(C)CC5)cc4)cc23)nc1` [Compound 21a, N-(5-Methoxypyrimidin-2-yl)-6-(4-((4-methylpiperazin-1-yl)sulfonyl)phenyl)cinnolin-4-amine], the EC50 is > 4.1 µM in assay [1] (Leishmania major), 5.77 µM in assay [2] (setting [5]), 6.6 ± 1.7 µM in assay [3] (Trypanosoma brucei) and 1.3 µM in assay [4] (setting [6]).
The like results for `CN1CCN(S(=O)(=O)c2ccc(-c3ccc4nncc(Nc5ccc(OC(F)(F)F)cc5)c4c3)cc2)CC1` [Compound 20a, 6-(4-((4-Methylpiperazin-1-yl)sulfonyl)phenyl)-N-(4-(trifluoromethoxy)phenyl)cinnolin-4-amine] were, in that order, 4.8 µM, 0.11 µM, 0.35 ± 0.26 µM and 6.8 µM.
Take `CN1CCN(c2ccc(-c3ccc4nncc(Nc5ccc(OC(F)(F)F)cc5)c4c3)cc2)CC1` [Compound 24a, 6-(4-(4-Methylpiperazin-1-yl)phenyl)-N-(4-(trifluoromethoxy)phenyl)cinnolin-4-amine]: the EC50 in assay [1] (Leishmania major) was > 21 µM; in assay [2] (setting [5]), 0.52 µM; in assay [3] (Trypanosoma brucei) it was 0.41 ± 0.024 µM; in assay [4] (setting [6]), 0.87 µM.
Take `COc1ccc(Nc2cnnc3cc(-c4ccc(N5CCN(C)CC5)cc4)ccc23)cc1` [Compound 23b, N-(4-Methoxyphenyl)-7-(4-(4-methylpiperazin-1-yl)phenyl)cinnolin-4-amine]: the EC50 is > 24 µM in assay [1] (Leishmania major), 0.078 ± 0.031 µM in assay [3] (Trypanosoma brucei) and 1.1 µM in assay [4] (setting [6]).
For the molecule `COc1ccc(Nc2cnnc3ccc(-c4cnc(N5CCCN(C)CC5)nc4)cc23)cc1` [Compound 30a, N-(4-Methoxyphenyl)-6-(2-(4-methyl-1,4-diazepan-1-yl)pyrimidin-5-yl)cinnolin-4-amine], the EC50 in assay [1] (Leishmania major) was > 23 µM; in assay [2] (setting [5]) it was > 10 µM; in assay [3] (Trypanosoma brucei), 2.1 ± 0.64 µM; in assay [4] (setting [6]) it was 5.1 µM.
The like results for `CN1CCCN(S(=O)(=O)c2ccc(-c3ccc4nncc(Nc5ccc(OC(F)(F)F)cc5)c4c3)cc2)CC1` [Compound 34a, 6-(4-((4-Methyl-1,4-diazepan-1-yl)sulfonyl)phenyl)-N-(4-(trifluoromethoxy)phenyl)cinnolin-4-amine] were, in that order, > 18 µM, 1.8 µM, 0.65 ± 0.021 µM and > 10 µM.
`COc1ccc(Nc2cnnc3ccc(-c4ccc(S(=O)(=O)N5CCN(C)CC5)cc4)cc23)cc1` [Compound 18a, N-(4-Methoxyphenyl)-6-(4-((4-methylpiperazin-1-yl)sulfonyl)phenyl)cinnolin-4-amine]: the EC50 in assay [1] (Leishmania major) was > 20 µM; in assay [2] (setting [5]) it was 3.4 µM; in assay [3] (Trypanosoma brucei), 0.39 ± 0.2 µM; in assay [4] (setting [6]) it was 8 µM.
`CN1CCCN(c2ncc(-c3ccc4nncc(Nc5ncc(Cl)cn5)c4c3)cn2)CC1` [Compound 29a, N-(5-Chloropyrimidin-2-yl)-6-(2-(4-methyl-1,4-diazepan-1-yl)pyrimidin-5-yl)cinnolin-4-amine]: the EC50 is > 22 µM in assay [1] (Leishmania major), 0.22 µM in assay [2] (setting [5]), 1.7 ± 0.5 µM in assay [3] (Trypanosoma brucei) and 6.7 µM in assay [4] (setting [6]).
With `Cc1ccc(Nc2cnnc3ccc(-c4ccc(S(=O)(=O)N5CCN(C)CC5)cc4)cc23)cn1` [Compound 13a, 6-(4-((4-Methylpiperazin-1-yl)sulfonyl)phenyl)-N-(6-methylpyridin-3-yl)cinnolin-4-amine], the EC50 is > 21 µM in assay [1] (Leishmania major), > 10 µM in assay [2] (setting [5]), 1.3 ± 0.027 µM in assay [3] (Trypanosoma brucei) and 8.2 µM in assay [4] (setting [6]).
Regarding `COc1ccc(Nc2cnnc3ccc(-c4ccc(N5CCN(C)CC5)cc4)cc23)cc1` [Compound 23a, N-(4-Methoxyphenyl)-6-(4-(4-methylpiperazin-1-yl)phenyl)cinnolin-4-amine], the EC50 came to 4.7 µM in assay [1] (Leishmania major), 2.3 µM in assay [2] (setting [5]), 0.31 ± 0.18 µM in assay [3] (Trypanosoma brucei) and 1.7 µM in assay [4] (setting [6]).
The like results for `CN1CCN(S(=O)(=O)c2ccc(-c3ccc4nncc(Nc5cnccn5)c4c3)cc2)CC1` [Compound 15a, 6-(4-((4-Methylpiperazin-1-yl)sulfonyl)phenyl)-N-(pyrazin-2-yl)cinnolin-4-amine] were, in that order, 7.8 µM, > 10 µM, 1.2 ± 0.18 µM and > 10 µM.
Take `COc1cnc(Nc2cnnc3ccc(-c4ccc(S(=O)(=O)N5CCCN(C)CC5)cc4)cc23)nc1` [Compound 35a, N-(5-Methoxypyrimidin-2-yl)-6-(4-((4-methyl-1,4-diazepan-1-yl)sulfonyl)phenyl)cinnolin-4-amine]: the EC50 was > 20 µM in assay [1] (Leishmania major), 0.27 ± 0.008 µM in assay [3] (Trypanosoma brucei) and > 10 µM in assay [4] (setting [6]).
With `CN1CCN(S(=O)(=O)c2ccc(-c3ccc4nncc(Nc5ncc(Cl)cn5)c4c3)cc2)CC1` [Compound 14a, N-(5-Chloropyrimidin-2-yl)-6-(4-((4-methylpiperazin-1-yl)sulfonyl)phenyl)cinnolin-4-amine], the EC50 in assay [1] (Leishmania major) amounted to 0.005 µM; in assay [2] (read-out: L. don EC50, B10R host cell line) it was 0.069 µM; in assay [3] (Trypanosoma brucei), 0.82 ± 0.19 µM; in assay [4] (setting [6]), 4.1 µM.
As to `COc1ccc(Nc2cnnc3cc(-c4cnc(N5CCN(C)CC5)nc4)ccc23)cc1` [Compound 27b, N-(4-Methoxyphenyl)-7-(2-(4-methylpiperazin-1-yl)pyrimidin-5-yl)cinnolin-4-amine], the results for the EC50 in assay [1] (Leishmania major), in assay [3] (Trypanosoma brucei) and in assay [4] (setting [6]) were > 4.7 µM, 0.36 ± 0.076 µM and 3.3 µM, respectively.
For the molecule `COc1ccc(Nc2cnnc3cc(-c4ccc(S(=O)(=O)N5CCN(C)CC5)cc4)ccc23)cc1` [Compound 18b, N-(4-Methoxyphenyl)-7-(4-((4-methylpiperazin-1-yl)sulfonyl)phenyl)cinnolin-4-amine], the EC50 in assay [1] (Leishmania major) is > 20 µM; in assay [3] (Trypanosoma brucei) it was 12 ± 0.63 µM; in assay [4] (setting [6]), 3.2 µM.
As for `COc1ccc(Nc2cnnc3cc(-c4ccc(S(=O)(=O)N5CCN(C)CC5)cc4)ccc23)nc1` [Compound 19b, N-(5-Methoxypyridin-2-yl)-7-(4-((4-methylpiperazin-1-yl)sulfonyl)phenyl)cinnolin-4-amine], the half-maximal effective concentration (EC50) in assay [1] (Leishmania major) is > 20 µM; in assay [2] (setting [5]), > 10 µM; in assay [4] (setting [6]) it was > 10 µM.
Take `CN1CCN(c2ncc(-c3ccc4nncc(Nc5ncc(Cl)cn5)c4c3)cn2)CC1` [Compound 26a, N-(5-Chloropyrimidin-2-yl)-6-(2-(4-methylpiperazin-1-yl)pyrimidin-5-yl)cinnolin-4-amine]: the results for the EC50 in assay [1] (Leishmania major), in assay [2] (setting [5]) and in assay [4] (setting [6]) were > 4.6 µM, > 10 µM and 2.7 µM, respectively.
Turning to “7-(4-((4-Methyl-1,4-diazepan-1-yl)sulfonyl)phenyl)-N-(4-(trifluoromethoxy)phenyl)cinnolin-4-amine [Compound 20b]”, the EC50 in assay [1] (amastigotes) was > 3.6 µM; in assay [3] it was 0.58 ± 0.25 µM; in assay [4] (read-out: T. cruzi EC50, C2C12 host cell) it was > 10 µM.
For `CN1CCN(S(=O)(=O)c2ccc(-c3ccc4nncc(Nc5ncccn5)c4c3)cc2)CC1` [Compound 16a, 6-(4-((4-Methylpiperazin-1-yl)sulfonyl)phenyl)-N-(pyrimidin-2-yl)cinnolin-4-amine], the results for the EC50 in assay [1] (Leishmania major), in assay [2] (setting [5]) and in assay [4] (setting [6]) were > 22 µM, 9 µM and > 10 µM, respectively.
